# Assay results published in patent publication US20140243322A1, “BIVALENT BROMODOMAIN LIGANDS, AND METHODS OF USING SAME” (Coferon, Inc., priority 2011, published 2014).
# Tests used:
# MV4-11 cells = assay: Inhibition of MV4-11 cell proliferation (Cell-Titer Glo); type: cell-based; conditions: Homo sapiens, 72 hours of growth, read-out: GI50 range
# Method: Inhibition of MV4-11 Cell Proliferation.
# MV4-11 cells (5000 cells in 50 μl volumes) in growth medium containing 10% FBS and 1% Pen/Strep were plated and grown overnight in 96 well plates and treated the next day with 3-fold dilutions of test compounds or with DMSO vehicle. After 72 hours of growth, 30 ul of Cell-Titer Glo reagent (Promega) was added to the wells and the plates incubated for 30 minutes. Luminescence was measured on a Spectramax M5 plate reader and GI50 values were calculated for each test compound.
# Myc mRNA = assay: Inhibition of Myc expression (Myc mRNA) in MV4-11 cells; type: cell-based; conditions: Homo sapiens, 4 hours of treatment, read-out: EC50 range, Myc mRNA normalized to GAPDH mRNA
# Excerpt: Inhibition of Myc Expression.
Compound,GI50 (MV4-11 cells),EC50 (Myc mRNA)
"CCNC(=O)C[C@@H]1N=C(c2ccc(Cl)cc2)c2cc(OCCNC(=O)C[C@@H]3N=C(c4ccc(Cl)cc4)c4cc(OC)ccc4-n4c(C)nnc43)ccc2-n2c(C)nnc21 [BRD-B-01, N-(2-(((S)-6-(4-chlorophenyl)-4-(2-(ethylamino)-2-oxoethyl)-1-methyl-4H-benzo[f][1,2,4]triazolo[4,3-a][1,4]diazepin-8-yl)oxy)ethyl)-2-((S)-6-(4-chlorophenyl)-8-methoxy-1-methyl-4H-benzo[f][1,2,4]triazolo[4,3-a][1,4]diazepin-4-yl)acetamide]",100 to 30000 nM,
"CCNC(=O)C[C@@H]1N=C(c2ccc(Cl)cc2)c2cc(OCCOCCOCCNC(=O)C[C@@H]3N=C(c4ccc(Cl)cc4)c4cc(OC)ccc4-n4c(C)nnc43)ccc2-n2c(C)nnc21 [BRD-B-04, N-(2-(2-(2-(((S)-6-(4-chlorophenyl)-4-(2-(ethylamino)-2-oxoethyl)-1-methyl-4H-benzo[f][1,2,4]triazolo[4,3-a][1,4]diazepin-8-yl)oxy)ethoxy)ethoxy)ethyl)-2-((S)-6-(4-chlorophenyl)-8-methoxy-1-methyl-4H-benzo[f][1,2,4]triazolo[4,3-a][1,4]diazepin-4-yl)acetamide]",0.1 to 30 nM,0.1 to 30 nM
"CCNC(=O)C[C@@H]1N=C(c2ccc(Cl)cc2)c2cc(OCCOCCOCCOCCNC(=O)C[C@@H]3N=C(c4ccc(Cl)cc4)c4cc(OC)ccc4-n4c(C)nnc43)ccc2-n2c(C)nnc21 [BRD-B-05, N-(2-(2-(2-(2-(((S)-6-(4-chlorophenyl)-4-(2-(ethylamino)-2-oxoethyl)-1-methyl-4H-benzo[f][1,2,4]triazolo[4,3-a][1,4]diazepin-8-yl)oxy)ethoxy)ethoxy)ethoxy)ethyl)-2-((S)-6-(4-chlorophenyl)-8-methoxy-1-methyl-4H-benzo[f][1,2,4]triazolo[4,3-a][1,4]diazepin-4-yl)acetamide]",0.1 to 30 nM,30 to 100 nM
"COc1ccc2c(c1)C(c1ccc(Cl)cc1)=N[C@@H](CC(=O)NCCNC(=O)NCCNC(=O)C[C@@H]1N=C(c3ccc(Cl)cc3)c3cc(OC)ccc3-n3c(C)nnc31)c1nnc(C)n1-2 [BRD-B-06, (S)—N,N′-((carbonylbis(azanediyl))bis(ethane-2,1-diyl))bis(2-((S)-6-(4-chlorophenyl)-8-methoxy-1-methyl-4H-benzo[f][1,2,4]triazolo[4,3-a][1,4]diazepin-4-yl)acetamide)]",100 to 30000 nM,100 to 30000 nM
"COc1ccc2c(c1)C(c1ccc(Cl)cc1)=N[C@@H](CC(=O)NCCNC(=O)CNC(=O)C[C@@H]1N=C(c3ccc(Cl)cc3)c3cc(OC)ccc3-n3c(C)nnc31)c1nnc(C)n1-2 [BRD-B-07, 2-((S)-6-(4-chlorophenyl)-8-methoxy-1-methyl-4H-benzo[f][1,2,4]triazolo[4,3-a][1,4]diazepin-4-yl)-N-(2-(2-(2-((S)-6-(4-chlorophenyl)-8-methoxy-1-methyl-4H-benzo[f][1,2,4]triazolo[4,3-a][1,4]diazepin-4-yl)acetamido)acetamido)ethyl)acetamide]",100 to 30000 nM,100 to 30000 nM
"COc1ccc2c(c1)C(c1ccc(Cl)cc1)=N[C@@H](CC(=O)NCCNC(=O)CNC(=O)CNC(=O)C[C@@H]1N=C(c3ccc(Cl)cc3)c3cc(OC)ccc3-n3c(C)nnc31)c1nnc(C)n1-2 [BRD-B-08, 2-((S)-6-(4-chlorophenyl)-8-methoxy-1-methyl-4H-benzo[f][1,2,4]triazolo[4,3-a][1,4]diazepin-4-yl)-N-(2-(2-(2-(2-((S)-6-(4-chlorophenyl)-8-methoxy-1-methyl-4H-benzo[f][1,2,4]triazolo[4,3-a][1,4]diazepin-4-yl)acetamido)acetamido)acetamido)ethyl)acetamide]",100 to 30000 nM,100 to 30000 nM
COc1ccc2c(c1)C(c1ccc(Cl)cc1)=N[C@@H](CC(=O)NCCNC(=O)CNC(=O)NCCNC(=O)C[C@@H]1N=C(c3ccc(Cl)cc3)c3cc(OC)ccc3-n3c(C)nnc31)c1nnc(C)n1-2 [BRD-B-09],100 to 30000 nM,100 to 30000 nM
"COc1ccc2c(c1)C(c1ccc(Cl)cc1)=N[C@@H](CC(=O)NCc1cccc(C3CCN(C(=O)C[C@@H]4N=C(c5ccc(Cl)cc5)c5cc(OC)ccc5-n5c(C)nnc54)CC3)c1)c1nnc(C)n1-2 [BRD-B-10, 2-((S)-6-(4-chlorophenyl)-8-methoxy-1-methyl-4H-benzo[f][1,2,4]triazolo[4,3-a][1,4]diazepin-4-yl)-N-(3-(1-(2-((S)-6-(4-chlorophenyl)-8-methoxy-1-methyl-4H-benzo[f][1,2,4]triazolo[4,3-a][1,4]diazepin-4-yl)acetyl)piperidin-4-yl)benzyl)acetamide]",100 to 30000 nM,
"COc1ccc2c(c1)C(c1ccc(Cl)cc1)=N[C@@H](CC(=O)NCC(=O)NCCNC(=O)CNC(=O)C[C@@H]1N=C(c3ccc(Cl)cc3)c3cc(OC)ccc3-n3c(C)nnc31)c1nnc(C)n1-2 [BRD-B-11, (S)—N,N′-(ethane-1,2-diyl)bis(2-(2-((S)-6-(4-chlorophenyl)-8-methoxy-1-methyl-4H-benzo[f][1,2,4]triazolo[4,3-a][1,4]diazepin-4-yl)acetamido)acetamide)]",100 to 30000 nM,100 to 30000 nM
"CCNC(=O)C[C@@H]1N=C(c2ccc(Cl)cc2)c2cc(OCCOCCOCCOCCOCCNC(=O)C[C@@H]3N=C(c4ccc(Cl)cc4)c4cc(OC)ccc4-n4c(C)nnc43)ccc2-n2c(C)nnc21 [BRD-B-12, N-(14-(((4S)-6-(4-chlorophenyl)-4-(2-(ethylamino)-2-oxoethyl)-1-methyl-4H-benzo[f][1,2,4]triazolo[4,3-a][1,4]diazepin-8-yl)oxy)-3,6,9,12-tetraoxatetradecyl)-2-((4S)-6-(4-chlorophenyl)-8-methoxy-1-methyl-4H-benzo[f][1,2,4]triazolo[4,3-a][1,4]diazepin-4-yl)acetamide]",0.1 to 30 nM,30 to 100 nM
"CCNC(=O)C[C@@H]1N=C(c2ccc(Cl)cc2)c2cc(OCCOCCOCCOCCOCCOCCNC(=O)C[C@@H]3N=C(c4ccc(Cl)cc4)c4cc(OC)ccc4-n4c(C)nnc43)ccc2-n2c(C)nnc21 [BRD-B-13, N-(17-(((4S)-6-(4-chlorophenyl)-4-(2-(ethylamino)-2-oxoethyl)-1-methyl-4H-benzo[f][1,2,4]triazolo[4,3-a][1,4]diazepin-8-yl)oxy)-3,6,9,12,15-pentaoxaheptadecyl)-2-((4S)-6-(4-chlorophenyl)-8-methoxy-1-methyl-4H-benzo[f][1,2,4]triazolo[4,3-a][1,4]diazepin-4-yl)acetamide]",0.1 to 30 nM,100 to 30000 nM
"COc1ccc2c(c1)C(c1ccc(Cl)cc1)=N[C@@H](CC(=O)NCCOCCOCCOCCOCCNC(=O)C[C@@H]1N=C(c3ccc(Cl)cc3)c3cc(OC)ccc3-n3c(C)nnc31)c1nnc(C)n1-2 [BRD-B-16, (S)—N,N′-(3,6,9,12-tetraoxatetradecane-1,14-diyl)bis(2-((S)-6-(4-chlorophenyl)-8-methoxy-1-methyl-4H-benzo[f][1,2,4]triazolo[4,3-a][1,4]diazepin-4-yl)acetamide)]",30 to 100 nM,30 to 100 nM
"COc1ccc2c(c1)C(c1ccc(Cl)cc1)=N[C@@H](CC(=O)NCCOCCOCCOCCOCCOCCNC(=O)C[C@@H]1N=C(c3ccc(Cl)cc3)c3cc(OC)ccc3-n3c(C)nnc31)c1nnc(C)n1-2 [BRD-B-17, (S)—N,N′-(3,6,9,12,15-pentaoxaheptadecane-1,17-diyl)bis(2-((S)-6-(4-chlorophenyl)-8-methoxy-1-methyl-4H-benzo[f][1,2,4]triazolo[4,3-a][1,4]diazepin-4-yl)acetamide)]",30 to 100 nM,100 to 30000 nM
"COc1ccc2c(c1)C(c1ccc(Cl)cc1)=N[C@@H](CC(=O)NCCOCCOCCOCCOCCOCCOCCNC(=O)C[C@@H]1N=C(c3ccc(Cl)cc3)c3cc(OC)ccc3-n3c(C)nnc31)c1nnc(C)n1-2 [BRD-B-18, (S)—N,N′-(3,6,9,12,15,18-hexaoxaicosane-1,20-diyl)bis(2-((S)-6-(4-chlorophenyl)-8-methoxy-1-methyl-4H-benzo[f][1,2,4]triazolo[4,3-a][1,4]diazepin-4-yl)acetamide)]",0.1 to 30 nM,30 to 100 nM
"COc1ccc2c(c1)C(c1ccc(Cl)cc1)=N[C@@H](CC(=O)NCCOCCOCCOCCOCCOCCOCCOCCNC(=O)C[C@@H]1N=C(c3ccc(Cl)cc3)c3cc(OC)ccc3-n3c(C)nnc31)c1nnc(C)n1-2 [BRD-B-19, (S)—N,N′-(3,6,9,12,15,18,21-heptaoxatricosane-1,23-diyl)bis(2-((S)-6-(4-chlorophenyl)-8-methoxy-1-methyl-4H-benzo[f][1,2,4]triazolo[4,3-a][1,4]diazepin-4-yl)acetamide)]",0.1 to 30 nM,100 to 30000 nM
"CCNC(=O)C[C@@H]1N=C(c2ccc(Cl)cc2)c2cc(OCCOCCOCCOCCOCCOCCOCCOCCOCCOCCNC(=O)C[C@@H]3N=C(c4ccc(Cl)cc4)c4cc(OC)ccc4-n4c(C)nnc43)ccc2-n2c(C)nnc21 [BRD-B-21, N-(29-(((4S)-6-(4-chlorophenyl)-4-(2-(ethylamino)-2-oxoethyl)-1-methyl-4H-benzo[f][1,2,4]triazolo[4,3-a][1,4]diazepin-8-yl)oxy)-3,6,9,12,15,18,21,24,27-nonaoxanonacosyl)-2-((4S)-6-(4-chlorophenyl)-8-methoxy-1-methyl-4H-benzo[f][1,2,4]triazolo[4,3-a][1,4]diazepin-4-yl)acetamide]",,100 to 30000 nM
"Cc1ccc(-c2c(C)noc2C)cc1S(=O)(=O)NCCOCCOCCNS(=O)(=O)c1cc(-c2c(C)noc2C)ccc1C [BRD-B-76, N,N′-((ethane-1,2-diylbis(oxy))bis(ethane-2,1-diyl))bis(5-(3,5-dimethylisoxazol-4-yl)-2-methylbenzenesulfonamide)]",,100 to 30000 nM
